target: T1, human sodium-dependent glucose transporter 1 (SGLT1, SLC5A1) (Homo sapiens, UniProt P13866); test: Inhibition of methyl α-D-glucopyranoside (α-MDG) uptake in CHO-TRex-hSGLT1 cells; type: cell-based; details: in vitro uptake of methyl α-D-glucopyranoside, 50 μM α-MDG, 30 min at room temperature
T1 construct: Bases 11 to 2005 correspond to the complete coding region of human SGLT1; expressed in transfected cells
T1 sequence (P13866 1-664): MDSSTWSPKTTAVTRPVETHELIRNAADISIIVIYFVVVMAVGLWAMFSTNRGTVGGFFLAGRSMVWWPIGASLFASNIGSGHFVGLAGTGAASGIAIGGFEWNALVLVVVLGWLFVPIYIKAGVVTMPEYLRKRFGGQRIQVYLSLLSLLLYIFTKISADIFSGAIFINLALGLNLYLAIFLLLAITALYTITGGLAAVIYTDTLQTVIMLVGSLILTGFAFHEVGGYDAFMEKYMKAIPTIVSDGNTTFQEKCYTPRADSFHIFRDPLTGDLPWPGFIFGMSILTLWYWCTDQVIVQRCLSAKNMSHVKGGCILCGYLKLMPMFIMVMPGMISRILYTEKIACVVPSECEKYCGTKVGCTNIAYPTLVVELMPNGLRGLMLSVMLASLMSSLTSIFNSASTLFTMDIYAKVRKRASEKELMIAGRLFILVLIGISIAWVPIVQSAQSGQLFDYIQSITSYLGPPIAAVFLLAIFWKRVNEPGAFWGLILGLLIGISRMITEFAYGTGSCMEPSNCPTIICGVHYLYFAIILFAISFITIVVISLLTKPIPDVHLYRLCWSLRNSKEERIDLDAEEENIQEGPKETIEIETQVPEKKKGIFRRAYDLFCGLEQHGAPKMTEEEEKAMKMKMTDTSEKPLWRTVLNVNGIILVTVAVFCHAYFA
From the text: A further method for testing the activity of the compounds is the inhibition of the transport activity of the human sodium-dependent glucose transporter 1 (SGLT1, SLC5A1) in vitro:
1. Cloning of an Expression Vector for Human SGLT1
The cDNA for human SGLT1 was introduced into the pcDNA4/TO vector (Invitrogen) by standard methods of molecular biology as described in Sambrook et al. (Sambrook et al., Molecular Cloning, A Laboratory Manual, 2nd Edition). […] Bases 11 to 2005 correspond to the complete coding region of human SGLT1.
2. Preparation of a Recombinant Cell Line with Inducible Expression of Human SGLT1
The expression vector for human SGLT1 was introduced into CHO-TRex cells (Invitrogen) by means of FuGene6 lipofection (Roche). To select single cell clones, 600 μg/mI Zeocin (Invitrogen) was added to the cell culture medium (Nutrient Mixture F-12 (Ham), (Invitrogen) supplemented with 10% fetal calf serum (BD Biosciences), 10 μg/ml blasticidin S (CN Biosciences), 100 units/ml penicillin, 100 units/ml streptomycin). The functionality of the single cell clones resulting from the selection was tested via their uptake activity for radiolabeled methyl α-D-glucopyranoside. The cell clone with the greatest uptake activity for methyl α-D-glucopyranoside, referred to as CHO-TRex-hSGLT1 hereinafter, was selected for further experiment, and cultivation was continued in the presence of 600 μg/ml of zeocin.
3. Measurement of the Inhibitory Effect of Test Substances on the Uptake of Methyl […]-D-glucopyranoside ([…]-MDG)
CHO-TRex-hSGLT1 cells were seeded in a concentration of 50 000 cells per well in Cytostar-T scintillating 96-well plates (Amersham Biosciences) in cell culture medium and cultivated for 24 h. Expression of the recombinant human SGLT1 was induced by adding 1 pg/mI tetracyclin for a further 24 h. For α-MDG uptake experiments, the cells were washed with PBS and then starved (PBS supplemented with 10% fetal calf serum) at 37° C. for one hour. After a further washing step with transport assay buffer (140 mM sodium chloride, 2 mM potassium chloride, 1 mM magnesium chloride, 1 mM calcium chloride, 10 mM HEPES/Tris, pH 7.5), the cells were incubated either in the absence or presence of test substances varying in concentration at room temperature for 15 min. The test substances were diluted appropriately in transport assay buffer (40 μl/well) starting from a 10 mM stock solution in dimethyl sulfoxide.
The assay was then started by adding 10 μl of a mixture of radiolabeled methyl α-D-[U-^14C]glucopyranoside (Amersham) and unlabeled methyl α-D-glucopyranoside (Acros). The final concentration of methyl α-D-glucopyranoside in the assay was 50 μM. After an incubation time of 30 min at room temperature, the reaction was stopped by adding 50 µl/well of 10 mM methyl α-D-glucopyranoside in transport assay buffer (4° C.), and the radioactivity uptake by the cells was determined in a MicroBeta Scintillation Microplate Reader (Wallac). The half-maximum inhibitory effect of the test substances (IC50) was determined in the following way: • 1. Establishment of the value for 0% inhibition. This is the measurement in the absence of substance, measured in sodium-containing transport assay buffer. • 2. Establishment of the value for 100% inhibition. This is the measurement in the absence of substance, measured in sodium-free transport assay buffer (140 mM choline chloride, 2 mM potassium chloride, 1 mM magnesium chloride, 1 mM calcium chloride, 10mM HEPES/Tris, pH7.5). • 3. Calculation of the percentage inhibitions for the measurements carried out in the presence of various concentrations of test substance. It was then possible to ascertain therefrom the concentration of test substance which reduced the uptake of methyl α-D-glucopyranoside by 50% (IC50).
IC50 values of test substances (μM) [in vitro testing of the uptake of methyl α-D-glucopyranoside]

| IC50 [nM] | Structure (SMILES) |
| --- | --- |
| 43 | CC(C)c1[nH]nc(OC2OC(CO)C(F)C(O)C2O)c1Cc1ccc(/C=C/CC(=O)NCCC(N)=O)cc1 (stereo not drawn) [Example 3] |
| 133 | Cc1[nH]nc(OC2OC(CO)C(F)C(O)C2O)c1Cc1ccc(CCCC(=O)NCCC(N)=O)cc1 (stereo not drawn) [Example 6] |
| 81 | CC(C)c1[nH]nc(OC2OC(CO)C(F)C(O)C2O)c1Cc1ccc(CCCC(=O)N[C@@H](CO)C(N)=O)cc1 (stereo partly drawn) [Example 9] |
| 139 | CC(C)c1[nH]nc(OC2OC(CO)C(F)C(O)C2O)c1Cc1ccc(CCCC(=O)N2CCN(C)CC2)cc1 (stereo not drawn) [Example 12] |
| 170 | CC(C)c1[nH]nc(OC2OC(CO)C(F)C(O)C2O)c1Cc1ccc(CCCC(=O)N2CCCC2)cc1 (stereo not drawn) [Example 15] |
| 80 | CC(C)c1[nH]nc(OC2OC(CO)C(F)C(O)C2O)c1Cc1ccc(CCC(=O)NC(C)(C)CO)cc1 (stereo not drawn) [Example 18] |
| 47 | CC(C)c1[nH]nc(OC2OC(CO)C(F)C(O)C2O)c1Cc1ccc(CCCC(=O)NC(CO)(CO)CO)cc1 (stereo not drawn) [Example 21] |
| 144 | CC(C)c1[nH]nc(OC2OC(CO)C(F)C(O)C2O)c1Cc1ccc(CCCC(=O)NCCCN)cc1 (stereo not drawn) [Example 22] |
| 208 | CC(C)c1[nH]nc(OC2OC(CO)C(F)C(O)C2O)c1Cc1ccc(CCCC(=O)N[C@@H]2O[C@H](CO)[C@@H](O)[C@H](O)[C@H]2O)cc1 (stereo partly drawn) [Example 24] |
| 252 | CCCNC(=O)NCCCc1ccc(Cc2c(OC3OC(CO)C(F)C(O)C3O)n[nH]c2C)cc1 (stereo not drawn) [Example 31] |
| 70 | CC(C)c1[nH]nc(O[C@@H]2O[C@H](CO)[C@@H](F)[C@H](O)[C@H]2O)c1Cc1ccc(C(=O)NCC(N)=O)cc1 [Example 33] |
| 43 | CC(C)c1[nH]nc(OC2OC(CO)C(F)C(O)C2O)c1Cc1ccc(CCCNC(=O)N2CCN(C)CC2)cc1 (stereo not drawn) [Example 36] |
